Laboratory results reported in publication doi:10.1101/2024.12.24.629646v1 (biorxiv, 2024).
pEC50: −log10 of the molar value.

Target: mGlu5 WT (Homo sapiens, UniProt P41594)
Assay: cell-based
Parameters: species or system HEK293

Sequence of mGlu5 WT (P41594 whole entry): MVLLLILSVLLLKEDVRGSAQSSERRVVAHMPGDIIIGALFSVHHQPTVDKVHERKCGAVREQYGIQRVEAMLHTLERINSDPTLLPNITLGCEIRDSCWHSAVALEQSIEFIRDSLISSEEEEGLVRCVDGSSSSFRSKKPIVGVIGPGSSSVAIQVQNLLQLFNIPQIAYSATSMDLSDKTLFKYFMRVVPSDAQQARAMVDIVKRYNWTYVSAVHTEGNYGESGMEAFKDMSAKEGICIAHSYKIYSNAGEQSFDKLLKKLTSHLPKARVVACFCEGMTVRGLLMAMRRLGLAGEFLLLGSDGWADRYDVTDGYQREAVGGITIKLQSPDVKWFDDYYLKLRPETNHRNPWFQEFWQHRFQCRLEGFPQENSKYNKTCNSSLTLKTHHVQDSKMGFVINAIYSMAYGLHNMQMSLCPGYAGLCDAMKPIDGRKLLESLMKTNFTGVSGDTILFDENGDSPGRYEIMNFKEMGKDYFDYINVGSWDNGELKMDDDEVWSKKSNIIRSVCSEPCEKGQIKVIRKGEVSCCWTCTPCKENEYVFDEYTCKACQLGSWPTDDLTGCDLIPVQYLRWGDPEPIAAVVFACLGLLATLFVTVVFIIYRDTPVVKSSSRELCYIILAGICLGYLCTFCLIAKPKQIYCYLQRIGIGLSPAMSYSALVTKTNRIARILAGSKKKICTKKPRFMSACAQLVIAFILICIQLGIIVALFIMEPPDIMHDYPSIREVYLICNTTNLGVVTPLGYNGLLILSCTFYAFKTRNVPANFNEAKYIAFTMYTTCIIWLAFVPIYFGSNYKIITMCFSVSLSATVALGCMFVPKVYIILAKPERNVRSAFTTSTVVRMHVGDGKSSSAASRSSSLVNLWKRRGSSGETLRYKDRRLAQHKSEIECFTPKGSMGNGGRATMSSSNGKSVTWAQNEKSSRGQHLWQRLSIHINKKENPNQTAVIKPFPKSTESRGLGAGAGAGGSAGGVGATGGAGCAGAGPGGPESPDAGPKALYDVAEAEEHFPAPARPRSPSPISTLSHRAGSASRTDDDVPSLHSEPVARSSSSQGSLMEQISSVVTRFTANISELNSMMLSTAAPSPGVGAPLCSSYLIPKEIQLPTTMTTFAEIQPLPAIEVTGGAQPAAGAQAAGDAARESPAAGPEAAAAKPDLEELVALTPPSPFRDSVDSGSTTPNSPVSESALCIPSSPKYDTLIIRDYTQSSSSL

Row | SMILES | pEC50
1 | C[C@@H](NC(=O)c1ccc(C#Cc2cccc(F)c2)cn1)C(C)(C)O [compound 1, VU0424465] | 8.28
2 | C[C@@H](NC(=O)c1ccc(/N=N/c2cccc(F)c2)cn1)C(C)(C)O [compound 2, (R,E)-5-((3-fluorophenyl)diazenyl)-N-(3-hydroxy-3-methylbutan-2-yl)picolinamide] | 5.93
